Like-named read-outs stand apart in the source and are kept apart here.
Experiments:
Enterococcus faecalis = test: TEM quantification of cells with visible damage; assay type: cell-based
Procedure: (§1) Suspensions of gram-positive bacteria were prepared by taking bacterial colonies out of overnight grown agar plates and resuspending them in MHB. The suspension was set to an OD625 extinction of 0.15–0.20 corresponding to a bacterial cell density of approximately 2 × 10^8 CFU/mL. Then, 3 × 1 mL of suspension was transferred into a 2-mL reaction tube and mixed with either plectasin, CASPON-plectasin, or PBS buffer to obtain volume conditions. The concentration for plectasin was 4 x MIC, and CASPON-plectasin was of the same molar quantity as plectasin. After incubation, the bacterial suspensions were washed with PBS three times, using mild centrifugation conditions for each wash cycle (3,000 g, 15 minutes) to avoid cell damage. Prior to sample preparation, mesh copper grids were pretreated with pioloform film and a thin carbon layer. Additionally, the grids were plasma-cleaned for 10 seconds. All samples were prepared by a negative staining procedure. Sample droplets were placed on copper grids for 10 minutes. Afterward, the grids were placed on a 2% glutaraldehyde in 0.1 M phosphate buffer, washed three times with HQ water, and stained with 1% uranyl acetate for 30 seconds. Grids were then analyzed in the TEM FEI Tecnai G^2 200 kV (Thermo Fisher Scientific, Waltham, MA) under high vacuum with 160 kV. For quantification, each condition (untreated, plectasin-treated, and CASPON-plectasin-treated) and each bacterial strain (the four mentioned above) were analyzed using two independent grid squares per biological duplicate, thus yielding a total of four grid squares per condition. Grid squares comprising ≥11 cells were selected for analysis, and the cells were counted and categorized as “no visible damage” or “visible damage”. Percentages and standard deviations were subsequently calculated for each condition. An example of counting the cells can be found in the supplementary material (Fig. S2).

Listeria monocytogenes = test: TEM quantification of cells with visible damage; assay type: cell-based
Procedure: as §1

Staphylococcus aureus = test: TEM quantification of cells with visible damage; assay type: cell-based
Procedure: as §1

Streptococcus pneumoniae = test: TEM quantification of cells with visible damage; assay type: cell-based
Procedure: as §1

[1] = assay type: physicochemical
Procedure: IMAC elution buffer was exchanged five times against PBS (137 mM NaCl, […], 2.7 mM KCl, and pH 7.4) with nominal 3 kDa cut-off in Amicon Ultra spin vials (Merck, Darmstadt, Germany). The buffer was exchanged discontinuously until the imidazole concentration was below 10 mM. To prevent loss in the form of precipitated plectasin, the CASPON-plectasin was diluted with PBS to a final concentration of 3.2 mg/mL.
The buffer exchanged solution was treated by digesting CASPON-plectasin, using a 1:100 (mol/mol) dilution of the CASPON enzyme per peptide at 37°C for 12 hours. To prevent caspase oxidation and to facilitate the cleavage process, dithiothreitol (DTT) was added to a final concentration of 1 mM DTT. The temperature was maintained by using an Eppendorf Thermoblock (Hamburg, Germany). The CASPON enzyme is a modification of T7AC-6H cpCasp2, which is described by Cserjan-Puschmann et al. ([28]).
The same RP-HPLC method described by Müller et al. ([24]) was employed for CASPON-plectasin/plectasin quantification. For CASPON-plectasin and plectasin, the concentrations 1, 0.5, 0.25, 0.125, and 0.0625 g/L were utilized to construct the calibration curve.
1.6 CASPON®-plectasin cleavage conditions […]
plectasin is limited to […].
Figure S5 Cleavage experiment using CASPON®-plectasin to examine the potential cleavage of plectasin. The calculated possible plectasin was based on the used CASPON®-plectasin mass (4 g/L), assuming no losses and employing stoichiometric principles.
The temperature and CASPONT® enzyme ratio (C. R.) were varied for the cleavage process. […]
the highest achievable plectasin concentration was 1.6 g/L. This outcome is consistent with the findings of a previous study (Mygind et al. 2005), which postulated that the solubility maximum of plectasin is approximately 1.6 g/L. However, an increase in DTT beyond this concentration […]
(1 picture or pasted object on this page, not shown here)

[2] = published findings; 59 (Mygind et al. 2005); cited from earlier work

CC[C@H](C)[C@@H]1NC(=O)[C@H](CO)NC(=O)[C@H](CCCCN)NC(=O)[C@@H]2CSSC[C@@H](C(=O)N[C@@H](Cc3ccc(O)cc3)C(=O)O)NC(=O)[C@H](CCCCN)NC(=O)[C@@H]3CSSC[C@H](NC(=O)[C@H](CCC(N)=O)NC(=O)[C@H](CCSC)NC(=O)[C@H](CC(=O)O)NC(=O)[C@H](CC(=O)O)NC(=O)[C@H](CCC(=O)O)NC(=O)[C@H](CC(=O)O)NC(=O)[C@H](Cc4c[nH]c5ccccc45)NC(=O)[C@@H]4CCCN4C(=O)CNC(=O)[C@H](CC(N)=O)NC(=O)[C@@H](NC(=O)CNC(=O)[C@H](Cc4ccccc4)NC(=O)CN)CSSC[C@H](NC(=O)[C@H](Cc4ccc(O)cc4)NC(=O)CNC(=O)CNC(=O)[C@H](CCCCN)NC(=O)[C@H](Cc4ccc(O)cc4)NC(=O)CNC(=O)[C@H](CCCCN)NC1=O)C(=O)N[C@@H](C)C(=O)N[C@@H](CCCCN)C(=O)NCC(=O)NCC(=O)N[C@@H](Cc1ccccc1)C(=O)N[C@@H](C(C)C)C(=O)N3)C(=O)N[C@@H](Cc1c[nH]cn1)C(=O)N[C@@H](CC(N)=O)C(=O)N[C@@H](Cc1c[nH]cn1)C(=O)N2 [Plectasin, plectasin]
No visible damage (%) (Enterococcus faecalis; Grid Square 1): 29.41%
Visible damage (%) (Enterococcus faecalis; Grid Square 1): 70.59%
No visible damage (%) (Enterococcus faecalis; Grid Square 2): 28.57%
Visible damage (%) (Enterococcus faecalis; Grid Square 2): 71.43%
No visible damage (%) (Enterococcus faecalis; Grid Square 3): 21.05%
Visible damage (%) (Enterococcus faecalis; Grid Square 3): 78.95%
No visible damage (%) (Enterococcus faecalis; Grid Square 4): 27.78%
Visible damage (%) (Enterococcus faecalis; Grid Square 4): 72.22%
cells with visible damage (Enterococcus faecalis; negative staining, plectasin 4 x MIC, CASPON-plectasin same molar quantity, mean ± SD of four grid squares (two biological replicates), untreated 4.07, SD): 73.30% ± 3.31%
cells with no visible damage (Enterococcus faecalis; negative staining, plectasin 4 x MIC, CASPON-plectasin same molar quantity, mean ± SD of four grid squares, untreated 95.93% ± 2.41%): 26.70%
No visible damage (%) (Listeria monocytogenes; Grid Square 1): 9.09%
Visible damage (%) (Listeria monocytogenes; Grid Square 1): 90.91%
No visible damage (%) (Listeria monocytogenes; Grid Square 2): 34.48%
Visible damage (%) (Listeria monocytogenes; Grid Square 2): 65.52%
No visible damage (%) (Listeria monocytogenes; Grid Square 3): 18.18%
Visible damage (%) (Listeria monocytogenes; Grid Square 3): 81.82%
No visible damage (%) (Listeria monocytogenes; Grid Square 4): 18.75%
Visible damage (%) (Listeria monocytogenes; Grid Square 4): 81.25%
cells with visible damage (Listeria monocytogenes; negative staining, plectasin 4 x MIC, CASPON-plectasin same molar quantity, mean ± SD of four grid squares (two biological replicates), untreated 6.97, SD): 79.87% ± 9.13%
cells with no visible damage (Listeria monocytogenes; negative staining, plectasin 4 x MIC, CASPON-plectasin same molar quantity, mean ± SD of four grid squares, untreated 93.03% ± 4.81%): 20.13%
No visible damage (%) (Staphylococcus aureus; Grid Square 1): 7.69%
Visible damage (%) (Staphylococcus aureus; Grid Square 1): 92.31%
No visible damage (%) (Staphylococcus aureus; Grid Square 2): 16.67%
Visible damage (%) (Staphylococcus aureus; Grid Square 2): 83.33%
No visible damage (%) (Staphylococcus aureus; Grid Square 3): 5.88%
Visible damage (%) (Staphylococcus aureus; Grid Square 3): 94.12%
No visible damage (%) (Staphylococcus aureus; Grid Square 4): 11.76%
Visible damage (%) (Staphylococcus aureus; Grid Square 4): 88.24%
cells with visible damage (Staphylococcus aureus; negative staining, plectasin 4 x MIC, CASPON-plectasin same molar quantity, mean ± SD of four grid squares (two biological replicates), untreated 10.10, SD): 89.50% ± 4.15%
cells with no visible damage (Staphylococcus aureus; negative staining, plectasin 4 x MIC, CASPON-plectasin same molar quantity, mean ± SD of four grid squares, untreated 89.90% ± 4.88%): 10.50%
No visible damage (%) (Streptococcus pneumoniae; Grid Square 1): 11.11%
Visible damage (%) (Streptococcus pneumoniae; Grid Square 1): 88.89%
No visible damage (%) (Streptococcus pneumoniae; Grid Square 2): 16.22%
Visible damage (%) (Streptococcus pneumoniae; Grid Square 2): 83.78%
No visible damage (%) (Streptococcus pneumoniae; Grid Square 3): 13.33%
Visible damage (%) (Streptococcus pneumoniae; Grid Square 3): 86.67%
No visible damage (%) (Streptococcus pneumoniae; Grid Square 4): 8.33%
Visible damage (%) (Streptococcus pneumoniae; Grid Square 4): 91.67%
cells with visible damage (Streptococcus pneumoniae; negative staining, plectasin 4 x MIC, CASPON-plectasin same molar quantity, mean ± SD of four grid squares (two biological replicates), untreated 15.20, SD): 87.75% ± 2.90%
cells with no visible damage (Streptococcus pneumoniae; negative staining, plectasin 4 x MIC, CASPON-plectasin same molar quantity, mean ± SD of four grid squares, untreated 84.80% ± 3.71%): 12.25%
highest achievable plectasin concentration after CASPON-tag cleavage ([1]; any selected cleavage condition (temperature and CASPON enzyme ratio varied), without DTT, from 4 g/L CASPON-plectasin, preliminary experiments, Fig. S5): 1.5 g/L
solubility of plectasin ([1]; in the CASPON enzyme-based tag removal step (PBS pH 7.4, 37°C)): ~ 1.6 g/L
highest achievable plectasin concentration after CASPON-tag cleavage ([1]; with 1 mM DTT as supporting agent, Fig. S6): 1.6 g/L
maximum solubility of plectasin [2]: ~ 1.6 g/L
